Reference: ChEMBL document CHEMBL1759955, “6-Benzoyl-3-hydroxypyrimidine-2,4-diones as dual inhibitors of HIV reverse transcriptase and integrase” (Bioorg Med Chem Lett, 2011)

Key:
CEM-SS [1] = experiment: Cytotoxicity against human CEM-SS cells; type: cell-based
[2] = Therapeutic index, ratio of CC50 for human CEM-SS cells to EC50 for HIV-1 3B infected in human CEM-SS cells; type: cell-based; settings: CEM-SS cells (uninfected, and infected with HIV-1 3B)
CEM-SS [3] = experiment: Cytotoxicity against human CEM-SS cells assessed as viable cells at 10 uM; type: cell-based
[4] = tested on: Human immunodeficiency virus 1; experiment: Antiviral activity against HIV-1 3B infected in human CEM-SS cells; type: functional, organism-based; settings: Human immunodeficiency virus 1, 3B
[5] = molecular target: T1, Human immunodeficiency virus type 1 integrase (Human immunodeficiency virus 1, UniProt Q7ZJM1); experiment: Inhibition of HIV1 integrase strand transfer activity
[6] = tested on: Human immunodeficiency virus 1; experiment: Antiviral activity against HIV-1 3B infected in human CEM-SS cells assessed as protection against virus induced cytopathic effect at 10 uM; type: functional; settings: Human immunodeficiency virus 1, 3B
[7] = molecular target: Human immunodeficiency virus type 1 reverse transcriptase (Human immunodeficiency virus 1, UniProt Q72547); experiment: Inhibition of HIV-1 reverse transcriptase
[8] = molecular target: T1, Human immunodeficiency virus type 1 integrase; experiment: Inhibition of HIV1 integrase 3'-end processing activity
[9] = molecular target: Human immunodeficiency virus type 1 reverse transcriptase (Human immunodeficiency virus 1) (UniProt Q72547); experiment: Inhibition of HIV-1 reverse transcriptase at 10 uM
[10] = molecular target: Human immunodeficiency virus type 1 reverse transcriptase (Human immunodeficiency virus 1) (UniProt Q72547); experiment: Inhibition of HIV-1 reverse transcriptase at 100 uM

T1 sequence (Q7ZJM1 whole entry): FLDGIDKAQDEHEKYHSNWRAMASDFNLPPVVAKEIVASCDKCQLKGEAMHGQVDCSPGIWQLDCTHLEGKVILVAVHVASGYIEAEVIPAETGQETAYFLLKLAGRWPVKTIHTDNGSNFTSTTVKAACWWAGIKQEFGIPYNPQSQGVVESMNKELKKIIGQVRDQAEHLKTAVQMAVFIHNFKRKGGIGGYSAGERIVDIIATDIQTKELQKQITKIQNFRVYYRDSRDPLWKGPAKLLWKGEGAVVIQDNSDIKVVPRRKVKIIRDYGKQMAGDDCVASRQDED

SMILES	CC50 (CEM-SS [1])	selectivity ratio [2]	Activity (CEM-SS [3])	EC50 [4]	IC50 [5]	inhibition at 10 µM [6]	IC50 [7]	IC50 [8]	inhibition [9]	inhibition [10]
CCc1c(C(=O)c2ccccc2)n(COCc2ccc(F)cc2)c(=O)n(O)c1=O	> 100 µM	> 50	100%	2 µM	25 µM	100%	23 µM	> 111 µM		
CCc1c(C(=O)c2ccccc2)n(COCCc2ccc(F)cc2)c(=O)n(O)c1=O	> 100 µM	> 290	100%	0.34 µM	4.1 µM	100%		> 111 µM	4%	46%
CCOCn1c(C(=O)c2cc(C)cc(C)c2)c(CC)c(=O)n(O)c1=O	77 µM	2600	100%	0.03 µM	> 111 µM	100%	0.5 µM	> 111 µM	61%	94%
CCOCn1c(C(=O)c2ccccc2)c(CC)c(=O)n(O)c1=O	94 µM	41	100%	2.3 µM	> 111 µM	100%	43 µM	> 111 µM		
CCc1c(C(=O)c2ccccc2)n(COCc2ccccc2)c(=O)n(O)c1=O	> 100 µM	> 71	98%	1.4 µM	37 µM	100%	14 µM	> 111 µM		
CCc1c(C(=O)c2cc(C)cc(C)c2)n(COCc2ccc(F)cc2)c(=O)n(O)c1=O	28 µM	78	100%	0.36 µM	21 µM	100%	7.6 µM	> 111 µM		
CCc1c(C(=O)c2cc(C)cc(C)c2)n(COCCc2ccc(F)cc2)c(=O)n(O)c1=O			81%		7 µM	56%	10 µM	> 111 µM	60%	74%
CCc1c(C(=O)c2cc(C)cc(C)c2)n(COCc2ccccc2)c(=O)n(O)c1=O	33 µM	540	100%	0.061 µM	41 µM	100%	1 µM	> 111 µM	79%	92%
